Experimental data reported in US20080069899A1, “Pharmaceutical Compositions Comprising Beta-Carboline Derivatives and Use Thereof for the Treatment of Cancer” (priority 2004, published 2008).
Values joined by “and” are separate entries in the source; they are usually repeats but may differ in a detail not shown here. Equal values may be shown once. Read-outs that look alike come from different tables or passages of the source.

How the values were obtained:
[1] = test system: HT29 human colon tumor cells; test: in vivo antineoplastic activity, NOD-SCID mice xenografted with HT29 human tumour cells
Method: (§1) The animal model chosen is that of severe combined immunodeficient (NOD-SCID) mice having received a xenograft of human tumor cells.
(§2) Male and female NOD-SCID mice, more than 3 months old, were raised in an environment of strict sterility, in an insulator ventilated with filtered air and sterilized, at 22° C. and 40% humidity, with a day-12 h/night-12 h cycle. The cages, feeding bottles and the water were sterilized in an autoclave at 120° C. for 30 minutes and the food as well as the bedding were treated with γ-irradiation. All handling took place in aseptic conditions under a laminar flow hood.
The mice were subjected to general anaesthesia by i.p. injection of 0.3 to 0.4 ml of hypnomidate at 2 mg/ml. 1×10^7 HT29 human colon tumor cells in suspension in 200 μl of PBS were then injected sub-cutaneously, into the backs of the mice. […]
50 mg of 5-fluorouracil (Sigma) were dissolved in 8 ml of water and the solution obtained was sterilized by filtration on a membrane with 0.22 μm porosity. […]

U937 (myeloma) = test: in vitro cytotoxicity test (neutral red, 96-well microplate); type: cell-based; details: Homo sapiens, U-937, 96 h, incubation 4 days
Method: (§3) The cytotoxic effects of the different alkaloid extracts of P. harmala were studied on several cell lines: • human leukemia cell lines: K562 and Jurkat (leukemia), U937 (myeloma), • human solid tumor cell lines: KB (epithelioma of the nasopharynx) and HT29 (colon), • immortalized human bone marrow endothelial cell lines: HBMEC.
(§4) The cells are cultured in an oven under a 5% CO2 atmosphere and at 37° C., in RPMI 1640 medium for K562, Jurkat, U937 and HT29 and DMEM for KB, supplemented with 10% foetal calf serum, 0.01% penicillin-streptomycin and L-glutamine 2 mM and in EGM2 medium for the HBMEC cells.
(§5) The cytotoxicity test is carried out in a 96-well microplate in the presence of the extract to be tested at varying concentrations of 40, 20, 10, 5, 1, 0.5 μg/ml and in the absence of product, after incubation for 4 days at 37° C. On the 3rd day, a solution of neutral red is added which is absorbed by living cells. The optical density (OD) of dye released by lyzed cells is measured at 540 nm by an Elisa plate reader. The toxicity (% inhibition of growth) is inversely proportional to the optical density.
(§6) The percentage of inhibition is defined as being the difference between the OD without product and the OD in the presence of product compared to the OD without product.
(§7) The concentration inhibiting 50% of cell growth is obtained from the curve representing the percentage of inhibition as a function of the logarithm of the concentration.

[2] = test system: HBMEC (immortalized human bone marrow endothelial cell lines); test: as above; type: cell-based; details: 96 h, incubation 4 days
Method: as §3, §4, §5, §6, §7

Jurkat (leukemia) = test: as above; type: cell-based; details: Homo sapiens, 96 h, incubation 4 days
Method: as §3, §4, §5, §6, §7

K562 (leukemia) = test: as above; type: cell-based; details: Homo sapiens, 96 h, incubation 4 days
Method: as §3, §4, §5, §6, §7

[3] = test system: KB (epithelioma of the nasopharynx); test: as above; type: cell-based; details: Homo sapiens, 96 h, incubation 4 days
Method: as §3, §4, §5, §6, §7

HT29 (colon) = test: as above; type: cell-based; details: Homo sapiens, HT-29, 96 h, incubation 4 days
Method: as §3, §4, §5, §6, §7

[4] = Method: as §1, §2
150 mg of cyclophosphamide (Sigma) were dissolved in 8 ml of water and the solution obtained was sterilized by filtration on a membrane with 0.22 μm porosity.
50 mg of 5-fluorouracil (Sigma) were dissolved in 8 ml of water and the solution obtained was sterilized by filtration on a membrane with 0.22 μm porosity.
100 mg of dihydrated harmalacidine hydrochloride were dissolved in 8 ml of water and the solution obtained was sterilized by filtration on a membrane with 0.22 μm porosity. The mice received either 25, 50, or 100 mg/kg/day of harmalacidine alone, or a mixture of 25 or 50 mg/kg/day of harmalacidine+50 mg/kg/day of cyclophosphamide.

murine tumorous cells = details: cited from earlier work
[5] = test system: HT29 human colon tumor cells; test: in vivo antineoplastic activity, NOD-SCID mice xenografted with HT29 human tumour cells; remark: listed apart in the source
[6] = test system: malignant and endothelial cells tested; test: summary of in vitro cytotoxicity over all lines tested; type: cell-based, human; details: Homo sapiens, Endothelial cell, range over the cell lines; read-out: IC50 vis-à-vis malignant and endothelial cells tested
Method: as §3, §4, §5, §6, §7
To summarize, the IC50 vis-à-vis malignant and endothelial cells tested is the following: […]

COc1ccc2c3c([nH]c2c1)C(=O)NCC3 [Harmalacidine (C), harmalacidine]
Average volume of the tumours of the treated mice compared to the average volume of the tumours of the non-treated mice (T/C) (%) ([1]; harmalacidine 25 mg/kg/day alone per os, Day 15): 81%
Average volume of the tumours of the treated mice compared to the average volume of the tumours of the non-treated mice (T/C) (%) ([1]; harmalacidine 25 mg/kg/day alone per os, Day 30): 72%
Average volume of the tumours of the treated mice compared to the average volume of the tumours of the non-treated mice (T/C) (%) ([1]; harmalacidine 25 mg/kg/day alone per os, Day 40): 70%
Average volume of the tumours of the treated mice compared to the average volume of the tumours of the non-treated mice (T/C) (%) ([1]; harmalacidine 25 mg/kg/day alone per os, Day 50): 65%
Average volume of the tumours of the treated mice compared to the average volume of the tumours of the non-treated mice (T/C) (%) ([1]; harmalacidine 25 mg/kg/day alone per os, Day 60): 77%
Average volume of the tumours of the treated mice compared to the average volume of the tumours of the non-treated mice (T/C) (%) ([1]; harmalacidine 50 mg/kg/day alone per os, Day 15): 42%
Average volume of the tumours of the treated mice compared to the average volume of the tumours of the non-treated mice (T/C) (%) ([1]; harmalacidine 50 mg/kg/day alone per os, Day 30): 56%
Average volume of the tumours of the treated mice compared to the average volume of the tumours of the non-treated mice (T/C) (%) ([1]; harmalacidine 50 mg/kg/day alone per os, Day 40): 48%
Average volume of the tumours of the treated mice compared to the average volume of the tumours of the non-treated mice (T/C) (%) ([1]; harmalacidine 50 mg/kg/day alone per os, Day 50): 45%
Average volume of the tumours of the treated mice compared to the average volume of the tumours of the non-treated mice (T/C) (%) ([1]; harmalacidine 50 mg/kg/day alone per os, Day 60): 57%
IC50 (U937 (myeloma)): 29 µg/mL and 134 µM
IC50 [2]: 28 µg/mL and 130 µM
IC50 (Jurkat (leukemia)): 15.5 µg/mL and 71.7 µM
IC50 (K562 (leukemia)): 12.5 µg/mL and 57.8 µM
IC50 [3]: 12 µg/mL and 55.5 µM
IC50 (HT29 (colon)): 10.5 µg/mL and 34.4 µM
state of the mice (printed in the T/C column) ([4]; harmalacidine 100 mg/kg/day alone, Day 15): dead
tolerance of the dose ([4]; harmalacidine 100 mg/kg/day, for more than 10 days): not tolerated

Peganine [Peganine (B)]
concentration inhibiting 50% of cell growth (IC50) (murine tumorous cells): inactive

COc1ccc2c(c1)[nH]c1c(C)nccc12 [Harmine (A), harmine]
Average volume of the tumours of the treated mice compared to the average volume of the tumours of the non-treated mice (T/C) (%) ([5]; harmine 100 mg/kg/day per os, Day 40): 77%
Average volume of the tumours of the treated mice compared to the average volume of the tumours of the non-treated mice (T/C) (%) ([5]; harmine 125 mg/kg/day per os, Day 30): 55%
Average volume of the tumours of the treated mice compared to the average volume of the tumours of the non-treated mice (T/C) (%) ([5]; harmine 175 mg/kg/day per os, Day 40): 10%
Average volume of the tumours of the treated mice compared to the average volume of the tumours of the non-treated mice (T/C) (%) ([5]; harmine 175 mg/kg/day per os, Day 50): 30%
inhibitory action on the growth of the tumors ([1]; harmine 100 mg/kg/day per os): very weak effect
Average volume of the tumours of the treated mice compared to the average volume of the tumours of the non-treated mice (T/C) (%) ([1]; harmine 100 mg/kg/day per os, Day 30): 74%
Average volume of the tumours of the treated mice compared to the average volume of the tumours of the non-treated mice (T/C) (%) ([1]; harmine 100 mg/kg/day per os, Day 50): 84%
Average volume of the tumours of the treated mice compared to the average volume of the tumours of the non-treated mice (T/C) (%) ([1]; harmine 100 mg/kg/day per os, Day 60): 105%
Average volume of the tumours of the treated mice compared to the average volume of the tumours of the non-treated mice (T/C) (%) ([1]; harmine 125 mg/kg/day per os, Day 40): 58%
Average volume of the tumours of the treated mice compared to the average volume of the tumours of the non-treated mice (T/C) (%) ([1]; harmine 125 mg/kg/day per os, Day 50): 54%
Average volume of the tumours of the treated mice compared to the average volume of the tumours of the non-treated mice (T/C) (%) ([1]; harmine 125 mg/kg/day per os, Day 60): 67%
Average volume of the tumours of the treated mice compared to the average volume of the tumours of the non-treated mice (T/C) (%) ([1]; harmine 150 mg/kg/day per os, Day 30): 41%
Average volume of the tumours of the treated mice compared to the average volume of the tumours of the non-treated mice (T/C) (%) ([1]; harmine 150 mg/kg/day per os, Day 40): 46%
Average volume of the tumours of the treated mice compared to the average volume of the tumours of the non-treated mice (T/C) (%) ([1]; harmine 150 mg/kg/day per os, Day 50): 42%
Average volume of the tumours of the treated mice compared to the average volume of the tumours of the non-treated mice (T/C) (%) ([1]; harmine 150 mg/kg/day per os, Day 60): 51%
Average volume of the tumours of the treated mice compared to the average volume of the tumours of the non-treated mice (T/C) (%) ([1]; harmine 175 mg/kg/day per os, Day 30): 40%
Average volume of the tumours of the treated mice compared to the average volume of the tumours of the non-treated mice (T/C) (%) ([1]; harmine 175 mg/kg/day per os, Day 60): 40%
T/C ([1]; harmine 175 mg/kg/day per os, for the entire duration of treatment): 40%
IC50 [6]: 2.9 µg/mL to 4.6 µg/mL and 14 µM to 22 µM
IC50 (U937 (myeloma)): 16.5 µM
IC50 [2]: 3.5 µg/mL and 16.5 µM
IC50 (Jurkat (leukemia)): 3.2 µg/mL and 15.1 µM
IC50 [3]: 4.6 µg/mL and 21.7 µM
IC50 (HT29 (colon)): 2.9 µg/mL and 13.7 µM
tolerance of the dose ([4]; harmine 200 mg/kg/day per os, the mice died after a few days of treatment): not tolerated
